Assay results reported in Sander's compilation of Henry's law constants (doi:10.1021/es00047a026).

experiment: Henry solubility constant Hcp at 298.15 K (mol/(m3 Pa)); details: reference: Hoff et al. (1993)

SMILES | Henry solubility constant Hcp
CC(Cl)(Cl)Cl [1,1,1-trichloroethane] | 0.00053
Clc1cccc(Cl)c1 [1,3-dichlorobenzene] | 0.0034
c1ccccc1 [benzene] | 0.0017
Clc1ccccc1 [chlorobenzene] | 0.0026
ClCCl [dichloromethane] | 0.0041
Cc1ccccc1 [methylbenzene] | 0.0013
CC(C)=O [propanone] | 0.27
ClC(Cl)=C(Cl)Cl [tetrachloroethene] | 0.00063
ClC(Cl)(Cl)Cl [tetrachloromethane] | 0.00036
ClC=C(Cl)Cl [trichloroethene] | 0.0011
